From PubChem BioAssay (NCI) come the findings set out here.

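All cell lines were grown in 96-well plates and treated with compound for 48 hours. GI50 is the concentration that inhibits growth by half. TGI marks complete inhibition of growth.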

Test systems include HOP-92 NSCLC; RXF 393 renal; HCT-15 colon; SW-620 colon; U251 CNS; TK-10 renal; OVCAR-3 ovarian; SF-539 CNS; NCI-H522 lung; HOP-62 NSCLC.
Holding throughout (assay): DTP human tumour cell line panel, 48 h

One may read the TGI as the concentration giving total growth inhibition. A higher TGI goes with lower sensitivity of the cells. For `O=C(O)CNS(=O)(=O)c1ccc(NC(=O)c2ccc(F)cc2)cc1`, the total growth inhibition concentration (TGI) in the experiment with HOP-92 NSCLC, with RXF 393 renal, in the experiment with HCT-15 colon, in the experiment on SW-620 colon, with U251 CNS and in the experiment on TK-10 renal was above 100 µM each time. Also, the TGI in the experiment on OVCAR-3 ovarian and with SF-539 CNS was above 100 µM in each case.
As for `C=CCC12CCC(=O)C=C1CCC1(C2)OCCO1` (stereo unspecified), the total growth inhibition concentration (TGI) with RXF 393 renal, in the experiment with HCT-15 colon, in the experiment with SW-620 colon, in the experiment on U251 CNS, with NCI-H522 lung and with HOP-62 NSCLC was above 100 µM throughout. For the same compound, the TGI with TK-10 renal, in the experiment with OVCAR-3 ovarian and with SF-539 CNS was above 100 µM throughout.
As a reminder, the GI50 is the concentration giving 50% growth inhibition. `NC1CCCCC1N.O=C([O-])P(=O)([O-])[O-].[Na+].[Pt+4]` (stereo unspecified): the GI50 in the experiment with RXF 393 renal was above 100 µM; with SW-620 colon, 28.8 µM; in the experiment on U251 CNS, above 100 µM; in the experiment on HOP-62 NSCLC, above 100 µM; in the experiment with TK-10 renal, above 100 µM; in the experiment with OVCAR-3 ovarian, above 100 µM. Moreover, in the experiment on SF-539 CNS, the GI50 is above 100 µM. For the same compound, the total growth inhibition concentration (TGI) with RXF 393 renal, in the experiment on SW-620 colon, in the experiment on U251 CNS, in the experiment on HOP-62 NSCLC, in the experiment with TK-10 renal and in the experiment with OVCAR-3 ovarian was above 100 µM throughout. Also, the TGI in the experiment with SF-539 CNS is above 100 µM.
Take `COc1ccc(-c2nsc3c2NC(=O)CC3c2ccc3c(c2)OCO3)cc1` (stereo unspecified): the GI50 in the experiment on RXF 393 renal was 1.38 µM; in the experiment with HCT-15 colon, 0.493 µM; in the experiment with SW-620 colon, 0.514 µM; in the experiment with NCI-H522 lung, 0.464 µM; in the experiment on HOP-62 NSCLC it was 1.92 µM; in the experiment on TK-10 renal, 8.25 µM. Besides, the GI50 in the experiment with OVCAR-3 ovarian was 0.874 µM; in the experiment with SF-539 CNS it was 1.05 µM. Further, the TGI was 7.88 µM with RXF 393 renal; above 100 µM in the experiment with HCT-15 colon; above 100 µM in the experiment on SW-620 colon; 3.57 µM with NCI-H522 lung; above 100 µM in the experiment on HOP-62 NSCLC; above 100 µM in the experiment with TK-10 renal. The TGI in the experiment with OVCAR-3 ovarian amounted to 10.4 µM; in the experiment on SF-539 CNS it was 3.7 µM.
In the case of `O=CN1N=C(c2ccc(Nc3ccnc4cc(Cl)ccc34)cc2)CC1c1ccccc1` (stereo unspecified), the GI50 was 4.28 µM in the experiment on HOP-92 NSCLC; 2.2 µM with RXF 393 renal; 2.54 µM in the experiment on HCT-15 colon; 2.73 µM in the experiment on SW-620 colon; 3.12 µM in the experiment with U251 CNS; 5.26 µM in the experiment on HOP-62 NSCLC. In addition, the figures for the GI50 with TK-10 renal, in the experiment on OVCAR-3 ovarian and with SF-539 CNS were 9.51 µM, 2.78 µM and 4.57 µM, respectively. The total growth inhibition concentration (TGI) was above 100 µM in the experiment with HOP-92 NSCLC; 21.6 µM in the experiment on RXF 393 renal; 14.4 µM with HCT-15 colon; 9.43 µM in the experiment on SW-620 colon; 19.2 µM with U251 CNS; 76.5 µM in the experiment with HOP-62 NSCLC. Also, the TGI in the experiment with TK-10 renal is 38.5 µM; in the experiment with OVCAR-3 ovarian it was 7.71 µM; in the experiment with SF-539 CNS, 18.7 µM.
Regarding `O=C1CCC2CCc3cccc4oc1c2c34` (stereo unspecified), the TGI in the experiment on HOP-92 NSCLC is 98.6 µM; in the experiment on RXF 393 renal, above 100 µM; in the experiment with HCT-15 colon, above 100 µM; in the experiment on SW-620 colon, above 100 µM; with U251 CNS, above 100 µM; with HOP-62 NSCLC, above 100 µM. The TGI in the experiment on TK-10 renal, in the experiment on OVCAR-3 ovarian and in the experiment with SF-539 CNS was above 100 µM throughout.
Consider `Oc1ccc2occ3c2c1CCC3`, for which the concentration for total growth inhibition (TGI) was 80.1 µM in the experiment on HOP-92 NSCLC; above 100 µM in the experiment on RXF 393 renal; above 100 µM in the experiment with HCT-15 colon; above 100 µM in the experiment on SW-620 colon; above 100 µM in the experiment with U251 CNS; above 100 µM in the experiment with HOP-62 NSCLC. The total growth inhibition concentration (TGI) in the experiment on TK-10 renal, with OVCAR-3 ovarian and in the experiment on SF-539 CNS was above 100 µM in each case.
With `CN(C)c1ccc(/C=C/C(=O)C(C)(C)C)cc1Br`, the TGI in the experiment with HCT-15 colon was 48.6 µM; in the experiment on SW-620 colon, 60.2 µM; in the experiment with U251 CNS it was above 100 µM; in the experiment with NCI-H522 lung, 31.9 µM; with HOP-62 NSCLC, above 100 µM; in the experiment with TK-10 renal, 87.3 µM. Also, the TGI with OVCAR-3 ovarian was above 100 µM; with SF-539 CNS it was 71 µM.
As for `CNc1nc(C)c(-c2nc(Nc3cccc(S(N)(=O)=O)c3)ncc2F)s1`, the GI50 in the experiment on RXF 393 renal is 0.0176 µM; with HCT-15 colon, 0.048 µM; in the experiment with SW-620 colon it was 0.0283 µM; with U251 CNS, 0.0268 µM; with NCI-H522 lung, 0.0449 µM; in the experiment on HOP-62 NSCLC it was below 0.0201 µM. The 50% growth inhibitory concentration (GI50) in the experiment with TK-10 renal was 0.0644 µM; with OVCAR-3 ovarian, 0.0302 µM; in the experiment with SF-539 CNS, 0.0233 µM. In addition, the TGI in the experiment on RXF 393 renal worked out at 0.0301 µM; in the experiment with HCT-15 colon, 12.1 µM; with SW-620 colon, 14.7 µM; in the experiment on U251 CNS, 11.5 µM; in the experiment with NCI-H522 lung, 0.137 µM; with TK-10 renal, 1.17 µM. Also, the TGI in the experiment on OVCAR-3 ovarian was 14.4 µM; in the experiment on SF-539 CNS, 0.0664 µM.
In the case of `COc1cc(N=Nc2ccccc2)cc(/C=N\[N-]C(N)=S)c1[O-].COc1cc(N=Nc2ccccc2)cc(/C=N\[N-]C(N)=S)c1[O-].[Fe+4]`, the GI50 in the experiment with HOP-92 NSCLC is above 100 µM; with RXF 393 renal, 10.9 µM; with SW-620 colon, 50.2 µM; in the experiment with HOP-62 NSCLC it was 23.4 µM; in the experiment with TK-10 renal, 48.1 µM; in the experiment on OVCAR-3 ovarian, above 100 µM. Moreover, the GI50 in the experiment on SF-539 CNS is 43.5 µM. Further, the TGI in the experiment with HOP-92 NSCLC is above 100 µM; in the experiment with RXF 393 renal, above 100 µM; with SW-620 colon, above 100 µM; with HOP-62 NSCLC it was 89.9 µM; with TK-10 renal it was above 100 µM; with OVCAR-3 ovarian, above 100 µM. The compound also gave a TGI in the experiment with SF-539 CNS above 100 µM.
`CCN(CC)c1ccc(N=C2C=CC(=O)c3ncccc32)c(C)c1`: the TGI was 19.7 µM in the experiment with HOP-92 NSCLC; 12.6 µM with RXF 393 renal; 10.8 µM in the experiment with HCT-15 colon; 7.12 µM with SW-620 colon; 19.6 µM in the experiment with U251 CNS; 37.2 µM in the experiment with HOP-62 NSCLC. For the same compound, the values for the TGI in the experiment on TK-10 renal, with OVCAR-3 ovarian and in the experiment with SF-539 CNS were 29.8 µM, 11.4 µM and 19.4 µM, respectively.
As for `COc1ccc(S(=O)(=O)N/N=C/CN2C(=O)c3ccccc3C2=O)cc1OC`, the TGI with RXF 393 renal, with HCT-15 colon, in the experiment with SW-620 colon, in the experiment on U251 CNS, in the experiment on NCI-H522 lung and with HOP-62 NSCLC was above 100 µM throughout. Further, the TGI in the experiment with OVCAR-3 ovarian and in the experiment with SF-539 CNS was above 100 µM each time.
On to `CNS(=O)(=O)NN(C)S(=O)(=O)c1ccc(Cl)cc1`, for which the TGI in the experiment on RXF 393 renal, with HCT-15 colon, with SW-620 colon, in the experiment with U251 CNS, with NCI-H522 lung and with HOP-62 NSCLC was above 100 µM each time. For the same compound, the total growth inhibition concentration (TGI) in the experiment with TK-10 renal, with OVCAR-3 ovarian and in the experiment on SF-539 CNS was above 100 µM in each case.
For `CN(C)/C=C/c1nnnn1-c1ccc(Cl)cc1`, the GI50 with RXF 393 renal is 7.55 µM; with HCT-15 colon, 5.04 µM; in the experiment on SW-620 colon, 10.7 µM; with U251 CNS it was 6.5 µM; with NCI-H522 lung, 25.2 µM; in the experiment on HOP-62 NSCLC it was 11.4 µM. In addition, the GI50 is 25.4 µM in the experiment on TK-10 renal and 16.5 µM in the experiment on SF-539 CNS. Further, the TGI with RXF 393 renal is 26.8 µM; in the experiment on HCT-15 colon, 80 µM; with SW-620 colon, 49.8 µM; in the experiment with U251 CNS, above 100 µM; in the experiment on NCI-H522 lung, 64.8 µM; in the experiment with HOP-62 NSCLC, 46.9 µM. Moreover, the concentration for total growth inhibition (TGI) with TK-10 renal came to 80.4 µM; in the experiment with SF-539 CNS, 44.4 µM.
In the case of `Nc1nc2c(c3ncccc13)C(c1ccc(Cl)c(Cl)c1)Cc1ncccc1-2` (stereo unspecified), the GI50 in the experiment on RXF 393 renal is 1.52 µM; in the experiment on HCT-15 colon, 4.36 µM; with SW-620 colon, 3.5 µM; in the experiment on U251 CNS it was 3.78 µM; in the experiment on NCI-H522 lung it was 1.5 µM; in the experiment with HOP-62 NSCLC it was 2.96 µM. In addition, the figures for the GI50 in the experiment on TK-10 renal, in the experiment with OVCAR-3 ovarian and in the experiment with SF-539 CNS were 6.46 µM, 2.59 µM and 2.15 µM, respectively. Further, the TGI turned out to be 5.25 µM with RXF 393 renal; 16.1 µM in the experiment on HCT-15 colon; 19 µM in the experiment with SW-620 colon; 13.9 µM in the experiment with U251 CNS; 5.1 µM in the experiment with NCI-H522 lung; 14 µM in the experiment with HOP-62 NSCLC. In addition, the TGI in the experiment with TK-10 renal is 20.5 µM; in the experiment with OVCAR-3 ovarian, 7.63 µM; in the experiment on SF-539 CNS, 5.35 µM.
On to `N#CCCN(CCC#N)c1ccc(/C=C2\N=C(COc3ccc(Cl)cc3Cl)OC2=O)cc1`, for which the TGI in the experiment with HCT-15 colon, with SW-620 colon, with U251 CNS, in the experiment on NCI-H522 lung, in the experiment with HOP-62 NSCLC and in the experiment with TK-10 renal was above 100 µM throughout. Further, the total growth inhibition concentration (TGI) in the experiment on OVCAR-3 ovarian and in the experiment on SF-539 CNS was above 100 µM throughout.
For the compound `COc1ccc(C(O)c2cc3c(N)c(C(=O)Nc4cccc(Cl)c4C)sc3nc2C)cc1` (stereo unspecified), the GI50 is 0.618 µM in the experiment with HOP-92 NSCLC; 0.709 µM with RXF 393 renal; 0.623 µM in the experiment with HCT-15 colon; 0.831 µM with SW-620 colon; 0.797 µM in the experiment with U251 CNS; 0.871 µM in the experiment on TK-10 renal. The GI50 with OVCAR-3 ovarian is 0.814 µM; in the experiment with SF-539 CNS it was 0.818 µM. For the same compound, the TGI in the experiment on HOP-92 NSCLC is 1.68 µM; in the experiment with RXF 393 renal it was 1.42 µM; with HCT-15 colon, 1.33 µM; in the experiment on SW-620 colon it was 1.65 µM; in the experiment on U251 CNS, 1.57 µM; in the experiment with TK-10 renal, 1.8 µM. Further, the TGI in the experiment on OVCAR-3 ovarian came to 1.79 µM; with SF-539 CNS, 1.54 µM.
